# From US20220241311A1, “METHODS AND MATERIALS FOR TREATING GLYCOSYLATION DISORDERS” (priority 2018, published 2022)
# Test system: PGM1-defective patient fibroblasts
# Experiment: Nucleotide sugar analysis (UPLC-PDA), patient fibroblasts
# Assay type: cell-based, human
# Method: Levels of nucleotides and sugar-nucleotides were determined. Fibroblast cell pellets (5×10^6 cells per sample) were lysed and extracted in 0.37 ml ice-cold 0.5 M perchloric acid with sonication on ice. Samples were neutralized with 86 μl ice-cold neutralization solution (2.5 M KOH in 1.5 M K2HPO4) after 5 minute sonication. To remove precipitated potassium perchlorate neutralized samples were centrifuged at 4° C. and 16,400×g for 10 minutes and filtered with 0.2 μm filters. Nucleotides and sugar-nucleotides were immediately analyzed and separated via ion-pair reverse phased chromatography using an Acquity HSS T3 column (150 mm×2.1 mm, 1.7 μm, Waters) connected to an Acquity H-class UPLC system. The column temperature was set to 40° C. and the column was equilibrated with solvent A (50 mM potassium phosphate buffer, 8 mM tetrabutylammonium hydrogensulfate, pH 6.5) at a flow rate of 0.45 ml min^−1. Autosampler temperature was maintained at 6° C. […] Nucleotides were detected by Acquity PDA detector (Waters, 260 nm) and quantified using ultrapure standards (Sigma). Data acquisition and processing was performed with the Empower3 software suite (Waters).
# Nucleotide sugars were measured with serum starvation during 18 hours of culturing and without of serum starvation and applying normal media.
# [1] = Patient 8, 1 d + 0.75 mM Galactose
# [2] = Patient 8, 4 d + 0.75 mM Galactose
# [3] = listed as 'i e' (patient cell-line 2013Y), 1 d 2 mM Galactose
# [4] = listed as 'i e' (patient cell-line 2013Y), 1 d + 0.75 mM Galactose
# [5] = listed as 'i e' (patient cell-line 2013Y), 4 d 2 mM Galactose
# [6] = listed as 'i e' (patient cell-line 2013Y), 4 d + 0.75 mM Galactose
compound,measurement,setting,value
"O=C[C@H](O)[C@@H](O)[C@@H](O)[C@H](O)CO [D-gal, D-galactose]",ADP,"Patient 8, 1 d 2 mM Galactose",510.69 pmol/mio cells
same,AMP,"Patient 8, 1 d 2 mM Galactose",15.28 pmol/mio cells
same,ATP,"Patient 8, 1 d 2 mM Galactose",2089.09 pmol/mio cells
same,CTP,"Patient 8, 1 d 2 mM Galactose",274.92 pmol/mio cells
same,GDP,"Patient 8, 1 d 2 mM Galactose",213.67 pmol/mio cells
same,GDP-Man,"Patient 8, 1 d 2 mM Galactose",29.66 pmol/mio cells
same,GTP,"Patient 8, 1 d 2 mM Galactose",434.86 pmol/mio cells
same,UDP,"Patient 8, 1 d 2 mM Galactose",153.67 pmol/mio cells
same,UDP-Gal,"Patient 8, 1 d 2 mM Galactose",398.68 pmol/mio cells
same,UDP-Glc,"Patient 8, 1 d 2 mM Galactose",613.75 pmol/mio cells
same,UDP-GlcNAc,"Patient 8, 1 d 2 mM Galactose",31.04 pmol/mio cells
same,UTP,"Patient 8, 1 d 2 mM Galactose",1183.32 pmol/mio cells
same,cAMP,"Patient 8, 1 d 2 mM Galactose",75.29 pmol/mio cells
same,ADP,[1],429.27 pmol/mio cells
same,AMP,[1],7.31 pmol/mio cells
same,ATP,[1],1855.71 pmol/mio cells
same,CTP,[1],222.68 pmol/mio cells
same,GDP,[1],188.04 pmol/mio cells
same,GDP-Man,[1],31.71 pmol/mio cells
same,GTP,[1],387.39 pmol/mio cells
same,UDP,[1],120.53 pmol/mio cells
same,UDP-Gal,[1],273.66 pmol/mio cells
same,UDP-Glc,[1],445.76 pmol/mio cells
same,UDP-GlcNAc,[1],40.27 pmol/mio cells
same,UTP,[1],1037.93 pmol/mio cells
same,cAMP,[1],72.84 pmol/mio cells
same,ADP,"Patient 8, 4 d 2 mM Galactose",695.56 pmol/mio cells
same,AMP,"Patient 8, 4 d 2 mM Galactose",22.78 pmol/mio cells
same,ATP,"Patient 8, 4 d 2 mM Galactose",3192.45 pmol/mio cells
same,CTP,"Patient 8, 4 d 2 mM Galactose",282.74 pmol/mio cells
same,GDP,"Patient 8, 4 d 2 mM Galactose",260.45 pmol/mio cells
same,GDP-Man,"Patient 8, 4 d 2 mM Galactose",95.43 pmol/mio cells
same,GTP,"Patient 8, 4 d 2 mM Galactose",659.21 pmol/mio cells
same,UDP,"Patient 8, 4 d 2 mM Galactose",169.63 pmol/mio cells
same,UDP-Gal,"Patient 8, 4 d 2 mM Galactose",315.21 pmol/mio cells
same,UDP-Glc,"Patient 8, 4 d 2 mM Galactose",493.54 pmol/mio cells
same,UDP-GlcNAc,"Patient 8, 4 d 2 mM Galactose",56.13 pmol/mio cells
same,UTP,"Patient 8, 4 d 2 mM Galactose",1293.27 pmol/mio cells
same,cAMP,"Patient 8, 4 d 2 mM Galactose",88.40 pmol/mio cells
same,ADP,[2],655.53 pmol/mio cells
same,AMP,[2],18.87 pmol/mio cells
same,ATP,[2],3363.84 pmol/mio cells
same,CTP,[2],274.92 pmol/mio cells
same,GDP,[2],277.54 pmol/mio cells
same,GDP-Man,[2],101.37 pmol/mio cells
same,GTP,[2],682.40 pmol/mio cells
same,UDP,[2],174.89 pmol/mio cells
same,UDP-Gal,[2],283.69 pmol/mio cells
same,UDP-Glc,[2],442.43 pmol/mio cells
same,UDP-GlcNAc,[2],6.33 pmol/mio cells
same,UTP,[2],1364.91 pmol/mio cells
same,cAMP,[2],74.47 pmol/mio cells
same,UDP-Glc and UDP-Gal levels,"all patient cell lines, 4 days of D-gal supplementation",remained significantly increased
same,ADP,[3],318.92 pmol/mio cells
same,AMP,[3],2.63 pmol/mio cells
same,ATP,[3],2918.66 pmol/mio cells
same,CTP,[3],295.58 pmol/mio cells
same,GDP,[3],186.06 pmol/mio cells
same,GDP-Man,[3],56.30 pmol/mio cells
same,GTP,[3],566.56 pmol/mio cells
same,UDP,[3],42.70 pmol/mio cells
same,UDP-Gal,[3],503.56 pmol/mio cells
same,UDP-Glc,[3],637.55 pmol/mio cells
same,UDP-GlcNAc,[3],211.57 pmol/mio cells
same,UTP,[3],981.09 pmol/mio cells
same,cAMP,[3],70.73 pmol/mio cells
same,ADP,[4],407.13 pmol/mio cells
same,AMP,[4],8.23 pmol/mio cells
same,ATP,[4],3422.01 pmol/mio cells
same,CTP,[4],339.16 pmol/mio cells
same,GDP,[4],187.52 pmol/mio cells
same,GDP-Man,[4],107.59 pmol/mio cells
same,GTP,[4],681.74 pmol/mio cells
same,UDP,[4],115.84 pmol/mio cells
same,UDP-Gal,[4],431.17 pmol/mio cells
same,UDP-Glc,[4],703.36 pmol/mio cells
same,UDP-GlcNAc,[4],21.89 pmol/mio cells
same,UTP,[4],1494.83 pmol/mio cells
same,cAMP,[4],91.16 pmol/mio cells
same,ADP,[5],382.44 pmol/mio cells
same,AMP,[5],16.17 pmol/mio cells
same,ATP,[5],3460.76 pmol/mio cells
same,CTP,[5],241.06 pmol/mio cells
same,GDP,[5],242.68 pmol/mio cells
same,GDP-Man,[5],147.29 pmol/mio cells
same,GTP,[5],681.71 pmol/mio cells
same,UDP,[5],43.26 pmol/mio cells
same,UDP-Gal,[5],394.31 pmol/mio cells
same,UDP-Glc,[5],616.89 pmol/mio cells
same,UTP,[5],1316.26 pmol/mio cells
same,cAMP,[5],98.61 pmol/mio cells
same,ADP,[6],349.53 pmol/mio cells
same,AMP,[6],3.85 pmol/mio cells
same,ATP,[6],3484.52 pmol/mio cells
same,CTP,[6],280.34 pmol/mio cells
same,GDP,[6],225.14 pmol/mio cells
same,GDP-Man,[6],151.18 pmol/mio cells
same,GTP,[6],686.35 pmol/mio cells
same,UDP,[6],39.53 pmol/mio cells
same,UDP-Gal,[6],290.54 pmol/mio cells
same,UDP-Glc,[6],487.94 pmol/mio cells
same,UDP-GlcNAc,[6],354.84 pmol/mio cells
same,UTP,[6],944.20 pmol/mio cells
same,cAMP,[6],68.63 pmol/mio cells
